# Literature values as cited in US5399360A, “Pharmaceutical compositions” (Sandoz Pharmaceuticals Corp., priority 1986, dated 1995).
# Conditions: described in German Patent 2,111,071
smiles,measurement,value
"CN1CCC(=C2c3ccccc3CC(=O)c3sccc32)CC1 [Ketotifen, 4-(1-methyl-4-piperidylidene)-4H-benzo[4,5]cyclohepta[1,2-b]thiophen-10(9H)-one]",pharmacological properties,anti-anaphylacticand anti-histamine properties
